Laboratory results taken from patent US20220213052A1, “INHIBITORS OF RNA-BINDING PROTEINS, COMPOSITIONS THEREOF, AND THERAPEUTIC USES THEROF” (The University of North Carolina at Chapel Hill, priority 2019, published 2022).
pIC50, pKi: −log10 of the molar value.

Experiments:
[1] = tested on: 2LMP subclone generated from MDA-MB-231; assay: 2LMP mouse xenograft model; type: in vivo
Excerpt: Xenograft and orthotopic models of cancer cell lines with HuR overexpression will be used to test the in vivo therapeutic potential of compounds of the present technology. A person of ordinary skill in the art is well apprised of cancer cell lines with HuR overexpression, as exemplified by references 2-12 cited herein in the “References” section. Tumor models will be established as described in Xu, L., et al., (−)−Gossypol enhances response to radiation therapy and results in tumor regression of human prostate cancer. Mol Cancer Ther, 2005. 4(2): p. 197-205.35 Briefly, 4-6 week old athymic NCr-nu/nu mice or 8-10-week-old NOD/SCID mice will be inoculated subcutaneously on both sides of flanks with 0.1 ml of a cell suspension of 1-5×10^6 tumor cells. Tumors will be allowed to grow to approximately 100 mm^3, when the blood vessel supplies to the tumor are established. Each group will contain at least 5 animals with at least 10 tumors across the five animals. Animals will be given compounds or vehicle i.v., i.p. or q.o.d.×2-3 weeks as described in Xu, L., et al., Systemic p53 gene therapy of cancer with immunolipoplexes targeted by anti-transferrin receptor scFv. Mol Med, 2001. 7(10): p. 723-34 and Xu, L., et al., Self-assembly of a virus-mimicking nanostructure system for efficient tumor-targeted gene delivery. […] The tumor sizes and animal body weights will be measured twice a week. […]

[2] = tested on: MDA-MB-231 mouse xenograft; assay: MDA-MB-231 mouse xenograft model, KH-39 alone and with docetaxel; type: in vivo, mice; conditions: after three-week treatment; KH-39 i.p. 50 mg/kg 5 times per week; TXT i.v.; ***P<0.001, ****P<0.0001, n=12
Excerpt: Cytotoxicity assays (as described earlier in this disclosure) for various cancer cell lines will also be performed utilizing concentrations of a compound of the present technology that are below the lethal threshold for the compound for the particular cancer (a “sub-lethal concentration”) in combination with a chemotherapeutic compound (e.g., docetaxel or doxorubicin) to illustrate compounds of the present technology sensitize cancer cell lines to chemotherapy. By way of illustration in an in vivo model, in vivo antitumor efficacy of KH-39 was examined in combination with docetaxel (a first-line chemotherapy for human breast cancer) in a MDA-MB-231 mouse xenograft model. For this, tumor-bearing female athymic mice were provided according to the protocols described earlier in the present disclosure and were randomized into four groups. One group of mice was treated with KH-39 (i.p. 50 mg/kg, 5 times per week), one group with docetaxel (TXT; i.v. at the dosages and time intervals indicated in FIG. 12), one group with a combination of KH-39 and TXT (KH-39 i.p. 50 mg/kg, 5 times per week and TXT i.v. at the dosages and time intervals indicated in FIG. 12), and one group of mice as the vehicle control. FIG. 12 illustrates the results, providing the tumor growth curves for each group.

[3] = tested on: MDA-MB-231 cells; assay: Matrigel invasion assay; type: cell-based; conditions: 10 μM; 24 h pretreatment, 20 h incubation
Protocol: To examine the anti-metastatic effect of compounds of the present technology, an invasion assay using Matrigel Invasion Chambers coated with Matrigel Matrix was performed. To perform the assays, MDA-MB-231 cells pretreated with compounds for 24 hours are added to the chambers and then incubated for 20 hours. Cells that remained on the upper surface of the chamber are completely removed with a cotton swab. Cells that emigrated or invaded through the membrane/Matrigel to the bottom of the chamber were fixed and stained with 0.2% crystal violet and photographed.

[4] = molecular target: T1, RNA-binding protein Lin-28 homolog B (LIN28B) (Homo sapiens, UniProt Q6ZN17); assay: LIN28B FP assay
T1 sequence (Q6ZN17 1-250): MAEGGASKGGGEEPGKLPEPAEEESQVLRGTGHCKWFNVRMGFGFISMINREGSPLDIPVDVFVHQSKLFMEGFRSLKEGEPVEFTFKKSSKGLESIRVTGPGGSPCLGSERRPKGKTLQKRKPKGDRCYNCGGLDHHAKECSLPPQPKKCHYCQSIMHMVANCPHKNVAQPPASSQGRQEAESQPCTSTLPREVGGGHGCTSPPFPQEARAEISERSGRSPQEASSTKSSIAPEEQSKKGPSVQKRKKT

[5] = tested on: MDA-MB-231 HuR knockout clones (HuR KO1 and HuR KO2); assay: Cytotoxicity against HuR knockout clones of MDA-MB-231; type: cell-based; conditions: HuR KO1 and HuR KO2 vs MDA-MB-231 and sgControl
Protocol: The cytotoxicity of various compounds of the present technology in several cancer cell lines (pancreatic cancer cell line MIAPaCa-2, triple-negative breast cancer cell line MDA-MB-231, and colon cancer cell lines HCT116, HCT116 β/W, and RKO) was assessed by a cytotoxicity assay. Cells were seeded in 96-well culture plates (3,000-5,000 cells/well) and treated with titrated compounds in triplicate. After 96 h incubation, cell growth medium was removed and proliferation reagent WST-8 (Sigma) was added to each well and incubated at 37° C. for 1-3 h. Absorbance was then measured with a plate reader at 450 nm with correction at 650 nm. The results were expressed as the percentage of absorbance of treated wells versus that of vehicle control. IC50, the drug concentration causing 50% growth inhibition, was calculated via sigmoid curve fitting using GraphPad Prism 5.0. The results for those compounds tested against MIAPaCa-2 and MDA-MB-231 are provided in Table 1; the results for those compounds tested against colon cancer cell lines HCT116, HCT116 β/W, and RKO are provided in Table 3.
The cytotoxicity of KH-39 and KH-58 against HuR knockout clones was probed by the same assay as described above. […]

[6] = tested on: triple-negative breast cancer cell line MDA-MB-231; assay: Cytotoxicity assay (WST-8), MDA-MB-231; type: cell-based; conditions: Homo sapiens, 96 h incubation
Outline: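 Cells (3,000-5,000/well) were treated in triplicate with titrated compounds for 96 h, then WST-8 was added for 1-3 h at 37° C and absorbance read at 450 nm (650 nm correction). IC50 (50% growth inhibition vs vehicle) came from sigmoid curve fitting.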

Compound: CC(C)(C)c1ccc(C(=O)Nc2ccc3[nH]c(C(=O)NO)cc3c2)cc1 [KH-39, 5-(4-(tert-butyl)benzamido)-N-hydroxy-1H-indole-2-carboxamide]
- bodyweight gain of mice ([1]; 2LMP xenograft model): gain bodyweight with similar trend to those in vehicle control group
- tumor growth compared to the vehicle control ([1]; after three-week treatment, ****P<0.0001, n=10): significantly decreased tumor growth
- relative tumor sizes versus control group [2]: significantly smaller than those in control group
- MDA-MB-231 cell invasion [3]: clearly inhibited MDA-MB-231 cell invasion
- pKi [4]: < 4.70
- IC50 of HuR KO clones versus parental cells and vector control cells [5]: two to three folds higher IC50 values
- pIC50 [6]: 5.32
